Literature values, collected in US20230233583A1, “USE OF PHYTOCANNABINOIDS FOR TREATING MULTIPLE MYELOMA” (priority 2020, published 2023).

Test system: MM cells
Details: reported in literature (ref. 3); by itself or in synergy with bortezomib; cited from earlier work

C=C(C)[C@@H]1CCC(C)=C[C@H]1c1c(O)cc(CCCCC)cc1O [CBD, cannabidiol]
growth of MM cells, in words: strongly inhibited growth
